Target: T1, bPGC (Beggiatoa sp. PS, UniProt Z9M4H6XJE9, K200E/D268K/T270G)
T1 construct: triple mutant of human codon-optimized bPAC, C-terminal YFP, expressed in Xenopus oocytes
T1 sequence (Z9M4H6XJE9 4-353 K200E/D268K/T270G): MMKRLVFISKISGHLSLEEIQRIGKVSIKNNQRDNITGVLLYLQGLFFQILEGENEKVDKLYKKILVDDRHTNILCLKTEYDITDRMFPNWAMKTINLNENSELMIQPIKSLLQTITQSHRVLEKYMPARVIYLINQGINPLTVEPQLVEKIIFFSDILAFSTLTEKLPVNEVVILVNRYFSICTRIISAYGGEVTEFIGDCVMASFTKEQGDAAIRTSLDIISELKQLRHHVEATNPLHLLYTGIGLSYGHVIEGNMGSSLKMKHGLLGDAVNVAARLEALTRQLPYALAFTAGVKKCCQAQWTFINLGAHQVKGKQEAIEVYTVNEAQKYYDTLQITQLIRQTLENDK
Assay: cGMP immunoassay, extracts of intact oocytes
Assay type: cell-based
Details: endogenous GTP, 464 nm light

Nc1nc2c(ncn2[C@@H]2O[C@H](COP(=O)(O)OP(=O)(O)OP(=O)(O)O)[C@@H](O)[C@H]2O)c(=O)[nH]1 [GTP]
cGMP immunoassay, extracts of intact oocytes: bPGC produced at least one cAMP for every four cGMP molecules under in vivo conditions

— article PMC4569695, “Optogenetic manipulation of cGMP in cells and animals by the tightly light-regulated guanylyl-cyclase opsin CyclOp” (Nature Communications, 2015)
